# Experimental data as given in patent US10717742B2, “Spiro[3H-indole-3,2′-pyrrolidin]-2(1H)-one compounds and derivatives as MDM2-P53 inhibitors” (Boehringer Ingelheim International GmbH, priority 2015, dated 2020).
# Biological target: p53-MDM2 interaction (GST-MDM2 protein aa 23-117 / biotinylated p53 wt peptide) (Homo sapiens (Human), UniProt Q00987)
# Experiment: Mdm2-p53 Inhibition AlphaScreen
# Type: binding
# Conditions: GST-MDM2 (aa 23-117) / biotinylated p53 wt peptide
# Procedure: Mdm2-p53 Inhibition AlphaScreen
# 15 μL of compound in 20% DMSO (serial pre-dilutions of compound are done in 100% DMSO) is pipetted to the wells of a white OptiPlate-96 (Perkin Elmer). A mix consisting of 20 nM GST-MDM2 protein (aa 23-117) and 20 nM biotinylated p53 wt peptide (encompassing aa 16-27 of wt human p53, amino acid sequence […]-Ttds-Lys-Biotin, molecular weight 2132.56 g/mol) is prepared in assay buffer (50 mM Tris/HCl pH 7.2; 120 mM NaCl; 0.1% bovine serum albumin (BSA); 5 mM dithiothreitol (DTT); 1 mM ethylenediaminetetraacetic acid (EDTA); 0.01% Tween 20). 30 μL of the mix is added to the compound dilutions and incubated for 15 min at rt while gently shaking the plate at 300 rounds per minute (rpm). Subsequently, 15 μL of premixed AlphaLISA Glutathione Acceptor Beads and AlphaScreen Streptavidin Donor Beads from PerkinElmer (in assay buffer at a concentration of 10 μg/mL each) are added and the samples are incubated for 30 min at rt in the dark (shaking 300 rpm). Afterwards, the signal is measured in a PerkinElmer Envision HIS Multilabel Reader using the AlphaScreen protocol from Perkin Elmer.
# Each plate contains negative controls where biotinylated p53-peptide and GST-MDM2 are left out and replaced by assay buffer. Negative control values are entered as low basis value when using the software GraphPad Prism for calculations. Furthermore, a positive control (5% DMSO instead of test compound; with protein/peptide mix) is pipetted. Determination of IC50 values are carried out using GraphPad Prism 3.03 software (or updates thereof).
# Sequence of p53-MDM2 interaction (GST-MDM2 protein aa 23-117 / biotinylated p53 wt peptide) (Q00987 23-117): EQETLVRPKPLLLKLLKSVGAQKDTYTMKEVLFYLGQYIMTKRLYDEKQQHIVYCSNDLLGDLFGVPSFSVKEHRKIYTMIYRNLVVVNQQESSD
row,SMILES,IC50 [nM]
1,O=C(O)c1ccc2c(c1)nc1n2CC[C@H]2[C@@H]1[C@H](c1cccc(Cl)c1F)[C@]1(C(=O)Nc3cc(Cl)ccc31)N2CC1CCCC1 [Ib-135],15
2,O=C(O)c1ccc2c(c1)nc1n2CC[C@H]2[C@@H]1[C@H](c1cccc(Cl)c1F)[C@]1(C(=O)Nc3cc(Cl)ccc31)N2CC1CCCCC1 [Ib-137],34
3,CCOc1cccc(CN2[C@H]3CCn4c(nc5cc(C(=O)O)ccc54)[C@H]3[C@H](c3cccc(Cl)c3F)[C@]23C(=O)Nc2cc(Cl)ccc23)c1 [Ib-139],4
4,CCOc1cccc(CN2[C@@H]3CCn4c(nc5cc(C(=O)O)ccc54)[C@@H]3[C@@H](c3cccc(Cl)c3F)[C@@]23C(=O)Nc2cc(Cl)ccc23)c1 [Ib-141],48
5,COCc1cccc(CN2[C@H]3CCn4c(nc5cc(C(=O)O)ccc54)[C@H]3[C@H](c3cccc(Cl)c3F)[C@]23C(=O)Nc2cc(Cl)ccc23)c1 [Ib-142],3
6,COc1cccc(CCN2[C@H]3CCn4c(nc5cc(C(=O)O)ccc54)[C@H]3[C@H](c3cccc(Cl)c3F)[C@]23C(=O)Nc2cc(Cl)ccc23)c1 [Ib-144],8
7,O=C(O)c1ccc2c(c1)nc1n2CC[C@H]2[C@@H]1[C@H](c1cccc(Cl)c1F)[C@]1(C(=O)Nc3cc(Cl)ccc31)N2CCC(F)(F)F [Ib-146],11
8,N#Cc1ccc2c(c1)NC(=O)[C@]21[C@@H](c2cccc(Cl)c2F)[C@@H]2c3nc4cc(C(=O)O)ccc4n3CC[C@@H]2N1CC1CC1 [Ib-152],7
9,O=C(O)c1cccc2nc3n(c12)CC[C@H]1[C@@H]3[C@H](c2cccc(Cl)c2F)[C@]2(C(=O)Nc3cc(Cl)ccc32)N1CC1CC1 [Ib-156],5
10,O=C(O)c1cc2nc3n(c2cc1OC(F)(F)F)CC[C@H]1[C@@H]3[C@H](c2cccc(Cl)c2F)[C@]2(C(=O)Nc3cc(Cl)ccc32)N1CC1CC1 [Ib-158],3
11,Cc1c(C(=O)O)ccc2c1nc1n2CC[C@H]2[C@@H]1[C@H](c1cccc(Cl)c1F)[C@]1(C(=O)Nc3cc(Cl)ccc31)N2CC1CC1 [Ib-160],4
12,Cc1cc2c(nc3n2CC[C@H]2[C@@H]3[C@H](c3cccc(Cl)c3F)[C@]3(C(=O)Nc4cc(Cl)ccc43)N2CC2CC2)c(C)c1C(=O)O [Ib-161],11
13,CC(C)c1cc2c(cc1C(=O)O)nc1n2CC[C@H]2[C@@H]1[C@H](c1cccc(Cl)c1F)[C@]1(C(=O)Nc3cc(Cl)ccc31)N2CC1CC1 [Ib-162],6
14,O=C(O)c1ccc2c(c1)nc1n2CC[C@H]2[C@@H]1[C@H](c1cccc(Cl)c1F)[C@]1(C(=O)Nc3nc(Cl)ccc31)N2CC1CC1 [Ib-171],10
15,CCOc1cccc(CN2[C@H]3CCn4c(nc5cc(C(=O)O)ccc54)[C@H]3[C@H](c3cccc(Cl)c3F)[C@]23C(=O)Nc2nc(Cl)ccc23)c1 [Ib-173],7
16,O=C(O)c1ccc2c(c1)nc1n2C[C@H]2[C@@H]1[C@H](c1cccc(Cl)c1F)[C@]1(C(=O)Nc3cc(Cl)ccc31)N2CC1CC1 [Ib-175],3
17,O=C(O)c1ccc2c(c1)nc1n2C[C@H]2[C@@H]1[C@H](c1cccc(Cl)c1F)[C@]1(C(=O)Nc3cc(Cl)ccc31)N2CC1CC1 [Ib-176],2
18,O=C(O)c1ccc2c(c1)nc1n2C[C@@H]2[C@H]1[C@@H](c1cccc(Cl)c1F)[C@@]1(C(=O)Nc3cc(Cl)ccc31)N2CC1CC1 [Ib-177],53
19,O=C(O)c1ccc2nc3n(c2c1)C[C@@H]1[C@H]3[C@@H](c2cccc(Cl)c2F)[C@@]2(C(=O)Nc3cc(Cl)ccc32)N1CC1CC1 [Ib-180],83
20,COCc1cccc(CN2[C@H]3Cn4c(nc5cc(C(=O)O)ccc54)[C@H]3[C@H](c3cccc(Cl)c3F)[C@]23C(=O)Nc2cc(Cl)ccc23)c1 [Ib-183],3
21,COCc1cccc(CN2[C@@H]3Cn4c(nc5cc(C(=O)O)ccc54)[C@@H]3[C@@H](c3cccc(Cl)c3F)[C@@]23C(=O)Nc2cc(Cl)ccc23)c1 [Ib-185],14
22,COc1cccc(CCN2[C@H]3Cn4c(nc5cc(C(=O)O)ccc54)[C@H]3[C@H](c3cccc(Cl)c3F)[C@]23C(=O)Nc2cc(Cl)ccc23)c1 [Ib-186],4
23,CCN1[C@H]2Cn3c(nc4cc(C(=O)O)c(C)cc43)[C@H]2[C@H](c2cccc(Cl)c2F)[C@]12C(=O)Nc1cc(Cl)ccc12 [Ib-191],6
24,O=C(O)c1cc2nc3n(c2cc1C(F)(F)F)C[C@H]1[C@@H]3[C@H](c2cccc(Cl)c2F)[C@]2(C(=O)Nc3cc(Cl)ccc32)N1CC1CC1 [Ib-195],6
25,O=C(O)c1ccc2c(c1)nc1n2C[C@H]2[C@@H]1[C@H](c1cc(Cl)cs1)[C@]1(C(=O)Nc3cc(Cl)ccc31)N2CC1CC1 [Ib-200],3
26,O=C(O)c1ccc2c(c1)nc1n2C[C@H]2[C@@H]1[C@H](c1ccc(Cl)s1)[C@]1(C(=O)Nc3cc(Cl)ccc31)N2CC1CC1 [Ib-202],7
27,Cc1cc(C(=O)O)cc2c1nc1n2CC[C@H]2[C@@H]1[C@H](c1cccc(Cl)c1F)[C@]1(C(=O)Nc3cc(Cl)ccc31)N2CC1CC1 [Ib-205],3
28,Cc1c(C(=O)O)ccc2nc3n(c12)CC[C@H]1[C@@H]3[C@H](c2cccc(Cl)c2F)[C@]2(C(=O)Nc3cc(Cl)ccc32)N1CC1CC1 [Ib-206],4

# The remaining compounds from weak to strong by IC50, led by results:
row,IC50 [nM],SMILES
1,28,O=C(O)C1(c2ccc3c(c2)nc2n3CC[C@H]3[C@@H]2[C@H](c2cccc(Cl)c2F)[C@]2(C(=O)Nc4cc(Cl)ccc42)N3CC2CC2)CC1 [Ib-165]
2,22,CC(C)(C(=O)O)c1ccc2c(c1)nc1n2CC[C@H]2[C@@H]1[C@H](c1cccc(Cl)c1F)[C@]1(C(=O)Nc3cc(Cl)ccc31)N2CC1CC1 [Ib-167]
3,21,N#CC12CC(CN3[C@H]4CCn5c(nc6cc(C(=O)O)ccc65)[C@H]4[C@H](c4cccc(Cl)c4F)[C@]34C(=O)Nc3cc(Cl)ccc34)(C1)C2 [Ib-148]
4,20,CC(C)(C)CN1[C@H]2CCn3c(nc4cc(C(=O)O)ccc43)[C@H]2[C@H](c2cccc(Cl)c2F)[C@]12C(=O)Nc1cc(Cl)ccc12 [Ib-150]
5,7,Cc1cc2c(cc1C(=O)O)nc1n2CC[C@H]2[C@@H]1[C@H](c1cccc(Cl)c1F)[C@]1(C(=O)Nc3cc(Cl)ccc31)N2CC1CC1 [Ib-159]
6,7,O=C(O)Cc1ccc2c(c1)nc1n2CC[C@H]2[C@@H]1[C@H](c1cccc(Cl)c1F)[C@]1(C(=O)Nc3cc(Cl)ccc31)N2CC1CC1 [Ib-169]
7,4,O=C(O)c1ccc2nc3n(c2c1)C[C@H]1[C@@H]3[C@H](c2cccc(Cl)c2F)[C@]2(C(=O)Nc3cc(Cl)ccc32)N1CC1CC1 [Ib-178]
8,4,O=C(O)c1ccc2c(c1)nc1n2C[C@H]2[C@@H]1[C@H](c1cccc(Br)c1F)[C@]1(C(=O)Nc3cc(Cl)ccc31)N2CC1CC1 [Ib-198]
9,3,O=C(O)c1ccc2nc3n(c2c1)CC[C@H]1[C@@H]3[C@H](c2cccc(Cl)c2F)[C@]2(C(=O)Nc3cc(Cl)ccc32)N1CC1CC1 [Ib-154]
10,3,O=C(O)c1cc2nc3n(c2cc1C(F)(F)F)CC[C@H]1[C@@H]3[C@H](c2cccc(Cl)c2F)[C@]2(C(=O)Nc3cc(Cl)ccc32)N1CC1CC1 [Ib-164]
11,3,Cc1cc2c(cc1C(=O)O)nc1n2C[C@H]2[C@@H]1[C@H](c1cccc(Cl)c1F)[C@]1(C(=O)Nc3cc(Cl)ccc31)N2CC1CC1 [Ib-188]
12,3,Cc1c(C(=O)O)ccc2c1nc1n2C[C@H]2[C@@H]1[C@H](c1cccc(Cl)c1F)[C@]1(C(=O)Nc3cc(Cl)ccc31)N2CC1CC1 [Ib-189]
13,3,O=C(O)c1ccc2c(nc3n2C[C@H]2[C@@H]3[C@H](c3cccc(Cl)c3F)[C@]3(C(=O)Nc4cc(Cl)ccc43)N2CC2CC2)c1C(F)(F)F [Ib-193]
14,2,CCOc1cccc(CN2[C@H]3CCn4c(nc5cc(C(=O)O)ccc54)[C@H]3[C@H](c3cccc(Cl)c3F)[C@]23C(=O)Nc2cc(Cl)ccc23)c1 [Ib-140]
15,2,O=C(O)c1ccc2nc3n(c2c1)CC[C@H]1[C@@H]3[C@H](c2cccc(Cl)c2F)[C@]2(C(=O)Nc3cc(Cl)ccc32)N1CC1CC1 [Ib-155]
16,2,COc1cc2c(cc1C(=O)O)nc1n2CC[C@H]2[C@@H]1[C@H](c1cccc(Cl)c1F)[C@]1(C(=O)Nc3cc(Cl)ccc31)N2CC1CC1 [Ib-157]
17,2,O=C(O)c1cc2nc3n(c2cc1F)CC[C@H]1[C@@H]3[C@H](c2cccc(Cl)c2F)[C@]2(C(=O)Nc3cc(Cl)ccc32)N1CC1CC1 [Ib-163]
18,2,O=C(O)c1ccc2nc3n(c2c1)C[C@H]1[C@@H]3[C@H](c2cccc(Cl)c2F)[C@]2(C(=O)Nc3cc(Cl)ccc32)N1CC1CC1 [Ib-179]
19,2,COCc1cccc(CN2[C@H]3Cn4c(nc5cc(C(=O)O)ccc54)[C@H]3[C@H](c3cccc(Cl)c3F)[C@]23C(=O)Nc2cc(Cl)ccc23)c1 [Ib-184]
20,2,Cc1c(C(=O)O)ccc2c1nc1n2C[C@H]2[C@@H]1[C@H](c1cccc(Cl)c1F)[C@]1(C(=O)Nc3cc(Cl)ccc31)N2CC1CC1 [Ib-190]
21,2,O=C(O)c1cc2nc3n(c2cc1OC(F)(F)F)C[C@H]1[C@@H]3[C@H](c2cccc(Cl)c2F)[C@]2(C(=O)Nc3cc(Cl)ccc32)N1CC1CC1 [Ib-197]
22,2,Cc1c(C(=O)O)ccc2nc3n(c12)CC[C@H]1[C@@H]3[C@H](c2cccc(Cl)c2F)[C@]2(C(=O)Nc3cc(Cl)ccc32)N1CC1CC1 [Ib-204]
